Among the data in US10758534B2 (Vertex Pharmaceuticals Incorporated, priority 2014, dated 2020) are EC30 values, retold here.

Structures are written as SMILES.

One experiment deals with T1, F508del (Homo sapiens, UniProt P13569, DEL508-508).
T1 construct: expressed in transfected cells
T1 sequence (P13569 with tags, fused parts or gaps DEL508-508): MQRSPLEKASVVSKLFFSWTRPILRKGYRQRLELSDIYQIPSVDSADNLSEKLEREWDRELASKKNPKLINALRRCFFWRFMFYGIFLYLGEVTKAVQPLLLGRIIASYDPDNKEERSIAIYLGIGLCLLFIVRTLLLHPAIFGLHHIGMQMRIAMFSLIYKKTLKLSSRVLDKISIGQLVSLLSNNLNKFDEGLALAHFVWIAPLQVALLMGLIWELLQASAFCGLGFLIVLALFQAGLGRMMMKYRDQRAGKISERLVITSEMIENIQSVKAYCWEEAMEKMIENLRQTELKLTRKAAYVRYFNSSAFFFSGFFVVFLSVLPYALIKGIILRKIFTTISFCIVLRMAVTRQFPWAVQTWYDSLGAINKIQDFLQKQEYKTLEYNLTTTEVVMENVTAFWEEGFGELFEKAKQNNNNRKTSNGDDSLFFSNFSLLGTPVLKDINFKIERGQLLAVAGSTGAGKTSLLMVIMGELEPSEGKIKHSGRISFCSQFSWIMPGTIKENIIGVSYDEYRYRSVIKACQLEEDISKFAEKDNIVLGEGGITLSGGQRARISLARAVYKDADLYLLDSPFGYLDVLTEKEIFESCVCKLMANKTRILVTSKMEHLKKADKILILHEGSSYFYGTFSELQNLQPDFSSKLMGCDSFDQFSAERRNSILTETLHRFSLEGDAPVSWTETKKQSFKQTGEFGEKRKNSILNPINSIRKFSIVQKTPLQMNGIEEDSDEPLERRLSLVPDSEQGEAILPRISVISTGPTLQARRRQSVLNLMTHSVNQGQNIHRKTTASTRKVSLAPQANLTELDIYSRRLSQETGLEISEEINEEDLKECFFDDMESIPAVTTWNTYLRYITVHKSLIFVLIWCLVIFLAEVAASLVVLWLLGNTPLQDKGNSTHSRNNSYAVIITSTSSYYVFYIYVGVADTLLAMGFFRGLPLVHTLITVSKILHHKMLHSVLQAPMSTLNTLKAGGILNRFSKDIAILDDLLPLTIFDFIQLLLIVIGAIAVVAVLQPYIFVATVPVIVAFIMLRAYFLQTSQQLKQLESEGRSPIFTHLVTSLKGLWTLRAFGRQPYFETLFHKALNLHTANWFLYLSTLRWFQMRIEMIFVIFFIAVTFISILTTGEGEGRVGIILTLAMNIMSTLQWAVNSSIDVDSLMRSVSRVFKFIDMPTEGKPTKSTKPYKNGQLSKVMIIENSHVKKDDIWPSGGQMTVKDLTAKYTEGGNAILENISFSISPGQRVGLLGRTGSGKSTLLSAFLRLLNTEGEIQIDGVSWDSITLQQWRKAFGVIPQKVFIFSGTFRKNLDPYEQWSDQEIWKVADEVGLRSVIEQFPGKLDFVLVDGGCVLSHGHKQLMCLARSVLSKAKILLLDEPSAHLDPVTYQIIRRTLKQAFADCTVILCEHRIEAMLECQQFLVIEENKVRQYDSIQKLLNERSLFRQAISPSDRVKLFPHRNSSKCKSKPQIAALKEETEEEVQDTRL
The experiment is described as follows: Protocol 2: FRET membrane potential optical assay (VIPR), identification of correction compounds. Type of experiment: cell-based. Particulars: F508del CFTR modulator activity; compounds of Table 1. From the text: Membrane potential optical methods for assaying F508del modulation properties of compounds.
These voltage sensitive assays are based on the change in fluorescence resonant energy transfer (FRET) between the membrane-soluble, voltage-sensitive dye, DiSBAC2(3), and a fluorescent phospholipid, CC2-DMPE, which is attached to the outer leaflet of the plasma membrane and acts as a FRET donor. Changes in membrane potential (Vm) cause the negatively charged DiSBAC2(3) to redistribute across the plasma membrane and the amount of energy transfer from CC2-DMPE changes accordingly. The changes in fluorescence emission were monitored using VIPR™ II, which is an integrated liquid handler and fluorescent detector designed to conduct cell-based screens in 96- or 384-well microtiter plates.
To identify small molecules that correct the trafficking defect associated with F508del; a single-addition HTS assay format was developed. The cells were incubated in serum-free medium for 16 hrs at 37° C. in the presence or absence (negative control) of test compound. As a positive control, cells plated in 384-well plates were incubated for 16 hrs at 27° C. to “temperature-correct” F508del. The cells were subsequently rinsed 3× with Krebs Ringers solution and loaded with the voltage-sensitive dyes. To activate F508del, 10 μM forskolin and the CFTR potentiator, genistein (20 μM), were added along with Cl^−-free medium to each well. The addition of Cl^−-free medium promoted Cl^− efflux in response to F508del activation and the resulting membrane depolarization was optically monitored using the FRET-based voltage-sensor dyes.
• Bath Solution #1: (in mM) NaCl 160, KCl 4.5, CaCl2 2, MgCl2 1, HEPES 10, pH 7.4 with NaOH. • Chloride-free bath solution: Chloride salts in Bath Solution #1 (above) are substituted with gluconate salts. • CC2-DMPE: Prepared as a 10 mM stock solution in DMSO and stored at −20° C. • DiSBAC2(3): Prepared as a 10 mM stock in DMSO and stored at −20° C. Cell Culture
NIH3T3 mouse fibroblasts stably expressing F508del are used for optical measurements of membrane potential. The cells are maintained at 37° C. in 5% CO2 and 90% humidity in Dulbecco's modified Eagle's medium supplemented with 2 mM glutamine, 10% fetal bovine serum, 1×NEAA, β-ME, 1× pen/strep, and 25 mM HEPES in 175 cm^2 culture flasks. For all optical assays, the cells were seeded at 30,000/well in 384-well matrigel-coated plates and cultured for 2 hrs at 37° C. before culturing at 27° C. for 24 hrs for the potentiator assay. For the correction assays, the cells are cultured at 27° C. or 37° C. with and without compounds for 16-24 hours.
In the case of `CC(C)COc1cc(F)cc(-c2ccc(C(=O)NS(=O)(=O)c3cccc(N)n3)c(N3CC(C)CC34CCC4)n2)c1` (single isomer, unassigned) [Compound 2552, N-[(6-amino-2-pyridyl)sulfonyl]-6-(3-fluoro-5-isobutoxy-phenyl)-2-(6-methyl-8-azaspiro[3.4]octa N-8-yl)pyridine-3-carboxamide], the 30% effect concentration (EC30) (as a rule, the concentration needed for an effect of 30%) is “+++ (“+++” means <3 uM)”.

Staying with this experiment, now noted: F508del CFTR modulator activity; compounds of Table 1; read-out: EC30.
As to `CCOc1cc(C)cc(-c2ccc(C(=O)NS(=O)(=O)c3cc[nH]n3)c(N3C[C@@H](C)CC3(C)C)n2)n1` [Compound 2487, 6-(6-ethoxy-4-methyl-2-pyridyl)-N-(1H-pyrazol-3-ylsulfonyl)-2-[(4S)-2,2,4-trimethylpyrrolidin-1-yl]pyridine-3-carboxamide], the EC30 is under 3 µM.

For `Cc1cccc(Oc2cccc(S(=O)(=O)NC(=O)c3cccnc3N3CC(C)CC3(C)C)n2)n1` (stereo not shown) [Compound 2731], the EC30 fell in the range of 3 to 10 µM.

For `Cc1cccc(-c2ccc(C(=O)NS(=O)(=O)c3cccc(N)n3)c(N3C[C@@H](C)CC3(C)C)n2)c1O` [Compound 2203, N-[(6-amino-2-pyridyl)sulfonyl]-6-(2-hydroxy-3-methyl-phenyl)-2-[(4S)-2,2,4-trimethylpyrrolidin-1-yl]pyridine-3-carboxamide], the EC30 was under 3 µM.

Take `COc1cc(C)c(-c2ccc(C(=O)NS(=O)(=O)c3cccnc3N)c(N3C[C@@H](C)CC3(C)C)n2)c(C)c1` [Compound 2607, N-[(2-amino-3-pyridyl)sulfonyl]-6-(4-methoxy-2,6-dimethyl-phenyl)-2-[(4S)-2,2,4-trimethylpyrrolidin-1-yl]pyridine-3-carboxamide]: the EC30 is under 3 µM.

As for `CC1CN(c2ncccc2C(=O)NS(=O)(=O)c2cccc(OCc3cccc(C#N)c3)n2)C(C)(C)C1` (stereo not shown) [Compound 2299, N—[[6-[(3-cyanophenyl)methoxy]-2-pyridyl]sulfonyl]-2-(2,2,4-trimethylpyrrolidin-1-yl)pyridine-3-carboxamide], the EC30 is under 3 µM.

For `CC1CN(c2ncccc2C(=O)NS(=O)(=O)c2cccc(OCC3CCOCC3)n2)C(C)(C)C1` (stereo not shown) [Compound 2032, N—[[6-(tetrahydropyran-4-ylmethoxy)-2-pyridyl]sulfonyl]-2-(2,2,4-trimethylpyrrolidin-1-yl)pyridine-3-carboxamide], the EC30 fell in the range of 3 to 10 µM.

The experiment is the same for the next values; noted with them: Table 3; compounds of Table 1 as modulators of CFTR activity; protocol not stated.
`COc1ccc2c(c1)C(C)(C(=O)NS(=O)(=O)c1cccc(N)n1)N(Cc1c(C)cc(C)cc1C)C2` (stereo not shown) [Compound 474, N-[(6-amino-2-pyridyl)sulfonyl]-6-methoxy-1-methyl-2-[(2,4,6-trimethylphenyl)methyl]isoindoline-1-carboxamide]: the EC30 result is listed as “+++ (“+++” means <3 uM)”.

Take `COc1ncccc1S(=O)(=O)NC(=O)c1ccc(-c2ccc(C)cc2)nc1-c1ccc(C)cc1` [Compound 524, N-[(2-methoxy-3-pyridyl)sulfonyl]-2,6-bis(p-tolyl)pyridine-3-carboxamide]: the EC30 entry is “++ (“++” means between 3 uM and 10 uM)”.

Turning to `CCC1(C)CCCN(c2nc(-c3cc(F)cc(OCC(C)C)c3)ccc2C(=O)NS(=O)(=O)c2cccc(N)n2)C1` (stereo not shown) [Compound 530, N-[(6-amino-2-pyridyl)sulfonyl]-2-(3-ethyl-3-methyl-1-piperidyl)-6-(3-fluoro-5-isobutoxy-phenyl)pyridine-3-carboxamide], the EC30 entry is recorded as “+++ (“+++” means <3 uM)”.

Consider `COc1ccc(C)c(-c2ccc(C(=O)NS(=O)(=O)c3cccc(N)n3)c(N3CC(C)CC3(C)C)n2)c1` (stereo not shown) [Compound 470, N-[(6-amino-2-pyridyl)sulfonyl]-6-(5-methoxy-2-methyl-phenyl)-2-(2,2,4-trimethylpyrrolidin-1-yl)pyridine-3-carboxamide], for which the EC30 entry is on record as “+++ (“+++” means <3 uM)”.

Take `CC(C)COc1cc(F)cc(-c2ccc(C(=O)NS(=O)(=O)c3ccn[nH]3)c(N3CCC(C)C(C)C3)n2)c1` (stereo not shown) [Compound 528, 2-(3,4-dimethyl-1-piperidyl)-6-(3-fluoro-5-isobutoxy-phenyl)-N-(1H-pyrazol-5-ylsulfonyl)pyridine-3-carboxamide]: the EC30 result is reported as “+++ (“+++” means <3 uM)”.

Turning to `CC(c1ccccc1)n1c(C(=O)NS(=O)(=O)c2cccc(N)c2)cc2c(F)cccc21` (stereo not shown) [Compound 186, N-(3-aminophenyl)sulfonyl-4-fluoro-1-(1-phenylethyl)indole-2-carboxamide], the 30% effect concentration (EC30) entry was “+++ (“+++” means <3 uM)”.

As for `CC(C)Oc1ccc(-c2ccc(C(=O)NS(=O)(=O)c3cccc(N)n3)c(N3CCC[C@@H](C)C3)n2)cn1` [Compound 757, N-[(6-amino-2-pyridyl)sulfonyl]-6-(6-isopropoxy-3-pyridyl)-2-[(3R)-3-methyl-1-piperidyl]pyridine-3-carboxamide], the EC30 entry is recorded as “+++ (“+++” means <3 uM)”.

As to `CC(C)(C)c1ccc(C(=O)NS(=O)(=O)c2cccc(N)c2)c(-c2ccc3c(c2)CCC3)n1` [Compound 308, N-(3-aminophenyl)sulfonyl-6-tert-butyl-2-indan-5-yl-pyridine-3-carboxamide], the EC30 result was “+++ (“+++” means <3 uM)”.

Turning to `Cc1nc(OCC(C)C)ccc1-c1ccc(C(=O)NS(=O)(=O)c2cccc(N)n2)c(N2CC(C)CC2(C)C)n1` (stereo not shown) [Compound 616, N-[(6-amino-2-pyridyl)sulfonyl]-6-(6-isobutoxy-2-methyl-3-pyridyl)-2-(2,2,4-trimethylpyrrolidin-1-yl)pyridine-3-carboxamide], the EC30 result is given as “+++ (“+++” means <3 uM)”.

On to `Cc1cc(C)c(Oc2nc3ccccc3cc2C(=O)NS(=O)(=O)c2cccc(N)n2)c(C)c1` [Compound 91, N-[(6-amino-2-pyridyl)sulfonyl]-2-(2,4,6-trimethylphenoxy)quinoline-3-carboxamide], for which the EC30 entry was “++ (“++” means between 3 uM and 10 uM)”.

With `Cc1cccc(C)c1Cn1nc(-c2ccccc2OC(F)(F)F)cc1C(=O)NS(=O)(=O)c1ccccc1` [Compound 149, N-(benzenesulfonyl)-2-[(2,6-dimethylphenyl)methyl]-5-[2-(trifluoromethoxy)phenyl]pyrazole-3-carboxamide], the EC30 result is “+++ (“+++” means <3 uM)”.

`CCCc1ccccc1-c1cnc(Oc2c(C)cc(C)cc2C)c(C(=O)NS(=O)(=O)c2cccc(N)n2)c1` [Compound 429, N-[(6-amino-2-pyridyl)sulfonyl]-5-(2-propylphenyl)-2-(2,4,6-trimethylphenoxy)pyridine-3-carboxamide]: the EC30 result is “+++ (“+++” means <3 uM)”.

As to `CCOc1ccc(-c2ccc(C(=O)NS(=O)(=O)c3ccn[nH]3)c(N3CCC(C)CC3)n2)cc1` [Compound 445, 6-(4-ethoxyphenyl)-2-(4-methyl-1-piperidyl)-N-(1H-pyrazol-5-ylsulfonyl)pyridine-3-carboxamide], the EC30 result was “+ (“+” means greater than 10 uM)”.

For the compound `CCc1cccc(S(=O)(=O)NC(=O)c2ccc(C(C)(C)C)nc2-c2ccc(C)cc2)c1` [Compound 50, 6-tert-butyl-N-(3-ethylphenyl)sulfonyl-2-(p-tolyl)pyridine-3-carboxamide], the EC30 result was “+++ (“+++” means <3 uM)”.

As for `Cc1cccc(C)c1Cn1nc(-c2ccc(C(F)F)cc2)cc1C(=O)NS(=O)(=O)c1ccccc1` [Compound 119, N-(benzenesulfonyl)-5-[4-(difluoromethyl)phenyl]-2-[(2,6-dimethylphenyl)methyl]pyrazole-3-carboxamide], the EC30 result is “+++ (“+++” means <3 uM)”.

For the compound `Cc1cc(C)c(Oc2nc(-c3cc(OCC(C)C)ccc3F)ccc2C(=O)NS(=O)(=O)c2ccc[nH]c2=O)c(C)c1` [Compound 279, 6-(2-fluoro-5-isobutoxy-phenyl)-N-[(2-oxo-1H-pyridin-3-yl)sulfonyl]-2-(2,4,6-trimethylphenoxy)pyridine-3-carboxamide], the EC30 entry is “+++ (“+++” means <3 uM)”.

Turning to `Cc1cc(C)c(Cn2c(C(=O)NS(=O)(=O)c3ccc(N)cc3)cc3ccccc32)c(C)c1` [Compound 134, N-(4-aminophenyl)sulfonyl-1-[(2,4,6-trimethylphenyl)methyl]indole-2-carboxamide], the EC30 entry was “+++ (“+++” means <3 uM)”.

For the compound `COc1ccc(OC)c(-c2cc(C(=O)NS(=O)(=O)c3ccccc3)n(Cc3c(C)cccc3C)n2)c1` [Compound 100, N-(benzenesulfonyl)-5-(2,5-dimethoxyphenyl)-2-[(2,6-dimethylphenyl)methyl]pyrazole-3-carboxamide], the EC30 result is “+++ (“+++” means <3 uM)”.
